This series can be described thus: Inventors' finding on stability of micafungin in liquid state. The series is classed as physicochemical.

The record followed here is patent US20190151241A1, “STABLE PHARMACEUTICAL INJECTABLE COMPOSITIONS OF MICAFUNGIN” (CADILA HEALTHCARE LIMITED, priority 2017, published 2019).

Starred links: 1 amine or outer side, 2 acyl side, 3 side chain; linkers in the order of their positions; H or OH if unused. Positions of bridges follow the written chain, without caps; N, C: chain ends. Non-standard residues stand in square brackets, D forms with d. Residues, ends and D or L forms follow the SMILES beside them. ξ: configuration not given here. *: point of attachment. hTyr(3S-OH,4S-OH,3'-OSO3H) = N[C@H](C(=O)O)[C@H](O)[C@@H](O)c1ccc(O)c(OS(=O)(=O)O)c1; Orn(4R-OH,5R-OH) = O=C([C@H](C[C@@H](O)[C@@H](O)N[*:3])N[*:1])[*:2]; Pro(3S-OH,4S-Me) = C[C@H]1CN[C@H](C(=O)O)[C@H]1O; X1 = CCCCCOc1ccc(-c2cc(-c3ccc(C(=O)*)cc3)no2)cc1; Gln(3R-OH) = NC(=O)C[C@@H](O)[C@H](N)C(=O)O; Hyp = O=C(O)[C@@H]1C[C@@H](O)CN1; ξThr(3R) = C[C@@H](O)C(N)C(=O)O

Take `CCCCCOc1ccc(-c2cc(-c3ccc(C(=O)N[C@H]4C[C@@H](O)[C@@H](O)NC(=O)[C@@H]5[C@@H](O)[C@@H](C)CN5C(=O)[C@H]([C@H](O)CC(N)=O)NC(=O)[C@H]([C@H](O)[C@@H](O)c5ccc(O)c(OS(=O)(=O)O)c5)NC(=O)[C@@H]5C[C@@H](O)CN5C(=O)C([C@@H](C)O)NC4=O)cc3)no2)cc1` (stereo partly drawn) [micafungin, Micafungin] (X1-[Orn(4R-OH,5R-OH)][ξThr(3R)][Hyp][hTyr(3S-OH,4S-OH,3'-OSO3H)][Gln(3R-OH)][Pro(3S-OH,4S-Me)]; lactam 1-C): the “Stability in liquid state” value was “heat sensitive and shows temperature dependant degradation in liquid state”.
